Key:
[1] = system: Early Stage P388 Leukemia; experiment: Combination chemotherapy, therapeutic synergy against early stage P388 leukemia; assay type: in vivo, mouse; conditions: Test 1
Method: Several studies were carried out to determine the potential for therapeutic synergy of trimetrexate with several clinically active anticancer agents. […] (See, for example, Vendetti, "Relevance of Transplantable Animal-Tumor Systems to the Selection of New Agents for Clinical Trial," Pharmacological Basis of Cancer Chemotherapy. Williams and Wilkins, Baltimore, 1975, and Simpson Herren, et al., "Evaluation of In Vivo Tumor Models for Predicting Clinical Activity for Anticancer Drugs," Proc. Am. Assoc. Cancer Res., 26: 330 (1985).
Differences in cell kill of greater than ten-fold (one log) were considered indicative of therapeutic synergy.
CD2F1 mice were quarantined for at least two weeks prior to allocation to test groups. P388 leukemia was passaged in DBA2 mice according to standard protocols of the National Cancer Institute. On Day 0 of a given test, all mice in the test were randomized, injected intraperitoneally with suitably diluted ascites fluid from P388 tumor-bearing donor mice and rerandomized to test cages.
The initial inoculum for all but titration groups was 10^6 cells as determined by hemocytometer count. Each experiment contained an internal control and tumor titration which enabled the determination of the tumor doubling time and estimates of the log cell kill and number of tumor cells surviving treatment.
Drug treatment was begun either on Day 1 or on Day 4 depending upon the relative activity of the agents being tested.
All of the drugs were injected within one hour of dissolution, with the exception of trimetrexate which was made up fresh twice daily. All mice were treated on the basis of average cage-group weight.
In drug combination regimens, trimetrexate was given approximately 30 minutes before the other therapeutic agents when the route of administration of the other agent was ip. […]
Group average weights were determined for all groups on Days 1, 5, and 9 for "early stage" P388 tests and on Days 4, 8, and 12 for "advanced stage" P388 tests. Animals were monitored for life span. […]

[2] = system: breast cancer; experiment: Phase II trial, breast cancer; assay type: in vivo, human
Method: The efficacy and safety of trimetrexate in the treatment of patients with breast cancer was evaluated in an 10-center Phase II study. Twenty-eight patients participated in the multicenter study, with a group of 20 patients considered evaluable. […] All patients had metastatic disease and the principal sites of metastasis included lung, bone, and liver.
Patients were initially treated intravenously with 8 mg/m^2 /day of trimetrexate on Days 1 through 5 of a 21-day treatment cycle. Patients were evaluated after each treatment course and were withdrawn from the study if progressive disease was documented. Patients were eligible to received six courses of treatment if stable disease was documented; treatment beyond six courses was left to the discretion of the physician. The dose of trimetrexate was adjusted for each patient prior to each subsequent course of treatment based upon the patient reaction to the drug in the preceding course of treatment, and ranged from 8 mg/m^2 /day to about […]. A total of 91 courses of treatment were administered to the patients in the study.

[3] = system: dihydrofolate reductase; experiment: Inhibition of dihydrofolate reductase; assay type: biochemical
[4] = system: colon carcinoma; experiment: Phase I clinical trials, colon carcinoma; assay type: in vivo, human; conditions: single agent
Method: Several Phase I clinical trials employing trimetrexate in human patients were carried out. In one study, 36 patients were treated with trimetrexate as a single agent at daily doses of 0.5 mg/m^2 /day to 12 mg/m^2 /day administered intravenously for five days.
In additional Phase I clinical studies, patients were administered trimetrexate with single intravenous doses ranging between 5 and 450 mg/m^2 and with weekly doses of slightly greater than 100 mg/m^2.

[5] = system: P388; experiment: Antitumor activity against P388 leukemia in mice; assay type: in vivo, mouse; conditions: for Life Span % ILS / Life Span % T/C: optimal dose 40 mg/kg (dose range 80-2.5), ip daily, Days 1-9
Method: (§1) The growth inhibition properties of 5-methyl-6-[[(3,4,5-trimethoxyphenyl)amino]methyl]-2,4-quinazolinediamine (trimetrexate) against several transplanted murine tumors were evaluated employing the antitumor screening program of the Drug Evaluation Branch of the National Cancer Institute. The protocols for these tests is described in Cancer Chemotherapy Reports, 3: 1-103 (1972). The dosing schedules are results from these tests appear in Table IV.
(§2) In the L1210, P388, and B-16 melanoma models, results are expressed as a percentage of median control survival time. Percentage of increase in survival time and/or cures (30 day survivors) were the parameters used to measure the effectiveness of the agents. An initial median survival value for treated over control percentage (% T/C) equal to or greater than 125% was considered indicative of activity. For confirmatory activity, two multidose assays must show % T/C values equal to or greater than 150%.
(§3) Percent increase in median life span (% ILS) values appearing in the tables were calculated from the formula; 100×(median life span in days of treated mice minus median life span in days of untreated mice) divided by median life span in days of untreated control mice. That is, % ILS=[100×(T-C)]/C. % T/C and %ILS are directly interconvertible by the formula % ILS=% T/C -100.
(§4) L1210 Leukemic Cells (10^5 /mouse) and P388 leukemic cells (10^6 /mouse)were in the ascites form and were transferred to BD2F1 or CD2F1 mice by intraperitoneal (ip) injection of 0.1 ml of cells taken from animals bearing 6- to 7-day old tumors. Leukemic cells were injected ip one day prior to the start of treatment.
(§5) In all of the mouse tumor studies described above, routine controls consisted of matching ten normal mice (with no tumors) to each tumor-bearing treatment group and injecting them with the same drug at the same dosages, schedules, days of administration, and drug route as the tumor-bearing mice. In this way, drug-induced toxicity (lethality and weight loss) could be clearly separated from the effects of the drug on the tumors.

[6] = system: L1210; experiment: Antitumor activity against L1210 leukemia in mice; assay type: in vivo, mouse; conditions: for Life Span % ILS / Life Span % T/C: ip daily, Days 1-9
Method: as §1, §2, §3, §4, §5

[7] = system: Sarcoma-180; experiment: Inhibition of Sarcoma-180 cell growth in vitro; assay type: cell-based; conditions: Mus musculus, 48 h; Murine Sarcoma-180; read-out: ED50 (the source's name)
Method: Two leukemia cell lines (L1210 and L5178Y) and two solid tumor cell lines (Sarcoma 180 and Walker 256) were used in these studies.
Logarithmically growing L1210 cells (approximately 3×10^5 cells/ml) were diluted with Fischer's medium (containing 10% horse serum) to an approximate concentration of 5×10^4 cells/ml. Cells were planted in duplicate into 15 ml culture tubes containing either no drug or various amounts of drug, and incubated for 48 hours at 37° C. before being counted.
Trimetrexate was also evaluated in a similar manner side-by-side with methotrexate for its effect on the growth of three additional murine cell lines (L5178Y, Sarcoma-180, and Walkler-256) and three human cell lines (acute myelogenous leukemia K-562, T-cell 8402, and B-cell 8392), propagated in vitro.

[8] = optimal dose 20 mg/kg (dose range 80-5)
[9] = optimal dose 80 mg/kg (dose range 80-5)

With `COc1cc(NCc2ccc3nc(N)nc(N)c3c2C)cc(OC)c1OC` [Trimetrexate, 5-methyl-6-[[(3,4,5-trimethoxyphenyl)amino]methyl]-2,4-quinazolinediamine] the “single agent activity” value [1] was “the more active of the two single agents”, the “patients with stable disease” value ([2]; 20 evaluable patients) was 10 patients and the “patients with partial response” value ([2]; 20 evaluable patients, initial 8 mg/m^2/day iv Days 1-5 of 21-day cycle) was 3 patients. For the same compound, the partial response rate ([2]; p5% confidence interval 0-30.6%, 20 evaluable patients) was 15%, the “median duration of partial response” value ([2]; range 6.4-18.7+ weeks) was 13.1 weeks and the “inhibition of dihydrofolate reductase” value [3] was “potent inhibitor”. For the same compound, the “patients with favorable responses” value [4] was “four”, the “antitumor activity” value ([5]; mouse, in vivo) was “good activity” and the “Life Span % ILS” value ([5]; first line) was 143%. For the same compound, the “Life Span % T/C” value ([5]; first line) was 243%, the “Life Span % ILS” value ([5]; second line) was 142% and the “Life Span % T/C” value ([5]; second line) was 242%. The “antitumor activity” value ([6]; mouse, in vivo) was “good activity”, the “Life Span % ILS” value [6, 8] was 72% and the “Life Span % T/C” value [6, 8] was 172%. For the same compound, the “Life Span % ILS” value [6, 9] was 96%, the “Life Span % T/C” value [6, 9] was 196% and the IC50 [7] was 18 nM.
